Counter-ions that a name gives are not always drawn. Bridge positions count the residues as written; N and C are the ends. Square brackets hold non-standard residues; d marks the D form. Peptide text beside a SMILES is read from it. * marks the point of attachment. X1 = CC[C@H](C)CCCCC(=O)*; Dab = NCC[C@H](N)C(=O)O
Test system: Calu-3 cell monolayer
Experiment: Transepithelial transport across the Calu-3 cell monolayer
Conditions: colistin transport, Calu-3 monolayer, HBSS, 4 hours, LC-MS/MS, n = 4, Fig. 6C

CC[C@H](C)CCCCC(=O)N[C@@H](CCN)C(=O)N[C@H](C(=O)N[C@@H](CCN)C(=O)N[C@H]1CCNC(=O)[C@H]([C@@H](C)O)NC(=O)[C@H](CCN)NC(=O)[C@H](CCN)NC(=O)[C@H](CC(C)C)NC(=O)[C@@H](CC(C)C)NC(=O)[C@H](CCN)NC1=O)[C@@H](C)O [colistin, colistin sulfate] (X1-[Dab]T[Dab][Dab][Dab][dL]L[Dab][Dab]T; lactam 4-C)
drug retained in the donor compartment: more than 90%

Reference: PMC7423715 (International journal of pharmaceutics, 2020)
